The test system of experiment [1] is MGC-803. The experiment in a line: Induction of cell cycle arrest in human MGC-803 cells at 0.2 uM incubated for 24 hrs by propidium iodide staining based flow cytometry analysis. It is filed as functional. Background: Flow cytometry measures light scatter and fluorescence of single cells or particles in a stream.
Experiment [2] deals with MGC-803. The experiment in a line: Inhibition of cell […] in human MGC-803 cells at 50 nM incubated for 24 hrs by scratch wound healing assay. Type of experiment: functional, cell-based.
The subject of experiment [3] is RKO. The experiment is described as follows: Inhibition of cell migration in human RKO cells assessed as reduction in tumor wound healing incubated for 24 hrs by microscopic analysis. It is filed as functional, cell-based. The following applies: dose 10-90 nM.
Experiment [4] has as its system SW480. The experiment in a line: Antiproliferative activity against human SW480 cells assessed as reduction in cell viability incubated for 72 hrs by MTT assay. Type of experiment: functional, cell-based. The following applies: SW480, 72 h. (Formazan colour is commonly taken as a measure of viable cells.)
Experiment [5] concerns LoVo. The experiment is described as follows: Antiproliferative activity against human LoVo cells assessed as reduction in cell viability incubated for 72 hrs by MTT assay. It is filed as functional, cell-based.
Experiment [6] relates to RKO. The experiment in a line: Antiproliferative activity against human RKO cells assessed as reduction in cell viability incubated for 72 hrs by MTT assay. Type of experiment: functional, cell-based.
Experiment [7] concerns HGC-27. The experiment in a line: Antiproliferative activity against human HGC-27 cells assessed as reduction in cell viability incubated for 72 hrs by MTT assay. It is filed as functional, cell-based. To be noted: HGC-27, 72 h.
The test system of experiment [8] is SGC-7901. The experiment is described as follows: Antiproliferative activity against human SGC-7901 cells assessed as reduction in cell viability incubated for 72 hrs by MTT assay. It is filed as functional, cell-based. To be noted: SGC-7901, 72 h.
For experiment [9], the system named is MGC-803. The experiment is described as follows: Antiproliferative activity against human MGC-803 cells assessed as reduction in cell viability incubated for 72 hrs by MTT assay. Type of experiment: functional, cell-based. To be noted: MGC-803, 72 h.
Experiment [10] relates to GES1. The experiment in a line: Antiproliferative activity against human GES1 cells assessed as reduction in cell viability incubated for 72 hrs by MTT assay. Type of experiment: functional, cell-based. To be noted: GES1, 72 h.
The subject of experiment [11] is MGC-803. The experiment in a line: Induction of apoptosis in human MGC-803 cells assessed as late apoptotic cells at 0.2 uM incubated for 24 hrs by propidium iodide and Annexin V/FITC staining based flow cytometry assay (reference value: 4.10%). Type of experiment: functional.
For experiment [12], the system named is RKO. The experiment in a line: Induction of cell cycle arrest in human RKO cells at 0.2 uM incubated for 24 hrs by propidium iodide staining based flow cytometry analysis. Type of experiment: functional.
The subject of experiment [13] is MGC-803. The experiment in a line: Induction of apoptosis in human MGC-803 cells assessed as early apoptotic cells at 0.2 uM incubated for 24 hrs by propidium iodide and Annexin V/FITC staining based flow cytometry assay (reference value: 1.85%). Type of experiment: functional.
The test system of experiment [14] is RKO. The experiment is described as follows: Induction of apoptosis in human RKO cells assessed as early apoptotic cells at 0.2 uM incubated for 24 hrs by propidium iodide and Annexin V/FITC staining based flow cytometry assay (reference value: 0.16%). Type of experiment: functional.
Experiment [15] concerns RKO. The experiment is described as follows: Induction of apoptosis in human RKO cells assessed as late apoptotic cells at 0.2 uM incubated for 24 hrs by propidium iodide and Annexin V/FITC staining based flow cytometry assay (reference value: 0.50%). It is filed as functional.
The subject of experiment [16] is MGC-803. The experiment is described as follows: Induction of morphological changes in human MGC-803 cells at 0.2 uM incubated for 24 hrs by Giemsa staining based micrscopic analysis. Type of experiment: functional, cell-based.
In experiment [17] the test system is RKO. The experiment in a line: Induction of morphological changes in human RKO cells at 0.2 uM incubated for 24 hrs by Giemsa staining based micrscopic analysis. It is filed as functional, cell-based.
Experiment [18] deals with T1, DNA topoisomerase 1 (Homo sapiens) (UniProt P11387).
T1 sequence (whole entry): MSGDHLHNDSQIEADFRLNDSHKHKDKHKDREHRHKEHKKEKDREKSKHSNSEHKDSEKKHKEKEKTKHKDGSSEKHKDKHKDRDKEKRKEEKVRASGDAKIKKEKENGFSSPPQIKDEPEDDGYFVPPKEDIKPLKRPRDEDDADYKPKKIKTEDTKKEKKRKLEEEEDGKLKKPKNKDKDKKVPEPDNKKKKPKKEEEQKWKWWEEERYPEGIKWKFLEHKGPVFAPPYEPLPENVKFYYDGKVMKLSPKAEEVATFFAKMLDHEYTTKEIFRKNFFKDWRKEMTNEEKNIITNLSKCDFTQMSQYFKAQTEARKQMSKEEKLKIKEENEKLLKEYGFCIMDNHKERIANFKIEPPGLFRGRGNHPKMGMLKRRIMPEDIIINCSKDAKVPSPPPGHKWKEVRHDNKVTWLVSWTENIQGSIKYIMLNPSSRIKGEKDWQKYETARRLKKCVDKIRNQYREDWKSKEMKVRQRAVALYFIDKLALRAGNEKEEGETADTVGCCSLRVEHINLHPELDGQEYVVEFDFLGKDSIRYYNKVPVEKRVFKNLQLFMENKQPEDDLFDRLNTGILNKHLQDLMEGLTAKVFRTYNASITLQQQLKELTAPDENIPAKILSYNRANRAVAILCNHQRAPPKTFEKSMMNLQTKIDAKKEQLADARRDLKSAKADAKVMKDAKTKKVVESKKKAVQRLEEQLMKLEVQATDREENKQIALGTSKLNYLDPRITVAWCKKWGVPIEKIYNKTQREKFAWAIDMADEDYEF
The experiment in a line: Inhibition of topoisomerase 1 (unknown origin) at 200 uM using PBR322 DNA as substrate incubated for 30 mins by agarose gel electrophoresis.

Experiment [19] relates to MGC-803. The experiment is described as follows: Induction of cell cycle arrest in human MGC-803 cells assessed as accumulation of cells at G2/M phase at 0.2 uM incubated for 24 hrs by propidium iodide staining based flow cytometry analysis. It is filed as functional.
Experiment [20] has as its system RKO. The experiment in a line: Induction of cell cycle arrest in human RKO cells assessed as accumulation of cells at G2/M phase at 0.2 uM incubated for 24 hrs by propidium iodide staining based flow cytometry analysis. It is filed as functional.
Experiment [21] relates to RKO. The experiment in a line: Induction of cell cycle arrest in human RKO cells assessed as accumulation of cells at S phase at 0.2 uM incubated for 24 hrs by propidium iodide staining based flow cytometry analysis. Type of experiment: functional.

The source made the active and inactive calls. The rule behind the calls is not given here.

In general, IC50 refers to the concentration at which inhibition is half-maximal.

For `CN1c2ccccc2C(=O)N2CCc3c([nH]c4ccccc34)C21` (racemic), the result in experiment [1], in experiment [12], in experiment [16] and in experiment [17] was inactive. In addition, the inhibition result in [2] and in experiment [3] was “inactive” throughout. The half-maximal inhibitory concentration (IC50) in [4] is over 30000 nM; in experiment [5], 24200 nM; in experiment [6], 29600 nM; in experiment [7] it was over 30000 nM; in experiment [8], 17700 nM; in [9], 8520 nM. Moreover, the IC50 in experiment [10] was over 30000 nM. The Activity in experiment [11] is listed as 5.24%; in [13] it was 3.15%; in experiment [14], 4.63%; in experiment [15], 7.71%. Also, the inhibition result in experiment [18] was “Active”.

For the molecule `CC[C@@]1(O)C(=O)OCc2c1cc1n(c2=O)Cc2cc3c(CN(C)C)c(O)ccc3nc2-1` [TOPOTECAN], the inhibition entry in [2] and in [3] was “inactive” in each case. For the same molecule, the half-maximal inhibitory concentration (IC50) turned out to be 90 nM in experiment [4]; 120 nM in [5]; 420 nM in [6]; 490 nM in [7]; 690 nM in experiment [8]; 420 nM in experiment [9]. Besides, the IC50 in [10] came out at 1060 nM. Further, the Activity in experiment [11] is on record as 3.67%; in experiment [19] it was 82.29%; in experiment [20], 31.92%; in [21], 67.69%; in experiment [13], 5.11%; in experiment [14], 14.2%. Also, the Activity in experiment [15] worked out at 19.28%. Further, the result in experiment [16] and in [17] was inactive. In addition, the inhibition entry in experiment [18] is “Active”.

Source of the values: ChEMBL document CHEMBL5321222, “N(14)-substituted evodiamine derivatives as dual topoisomerase 1/tubulin-Inhibiting anti-gastrointestinal tumor agents” (Eur J Med Chem, 2023).
